{"source": "patent US20230066008A1", "about": "“ANTIPARASITIC COMPOSITION” (DERMALIQ THERAPEUTICS, INC., priority 2020, published 2023)", "conditions": "for Solubility (%w/v): crotamiton tests", "experimental": "500 mg crotamiton (SynTech, Ph.Eur. grade) is weighed in a 5-ml volumetric flask; the flask is then filled to 5 ml with F6H8 (Novaliq, purity >99%), closed and shaken for 5 min at 280 rpm, RT.", "note": "Like-named read-outs stand apart in the source and are kept apart here."}
{"smiles": "CC=CC(=O)N(CC)c1ccccc1C", "note": "[Crotamiton, crotamiton]", "values": [{"measurement": "Appearance of resulting solution", "setting": "100 mg/ml (10% w/v) in F6H8, shaken 5 min at 280 rpm, RT", "value": "clear"}, {"measurement": "Solubility (%w/v)", "setting": "solvent F4H5", "value": ">12", "unit": "%w/v"}, {"measurement": "Solubility (%w/v)", "setting": "solvent F6H2", "value": "^~6%w/v"}, {"measurement": "Solubility (%w/v)", "setting": "solvent F6H8", "value": ">12", "unit": "%w/v"}]}
